From PubChem BioAssay AID1745844 (Carcinogenic Potency Database (CPDB), 2022)
“And” between values parts separate entries of the source, which are not always exact repeats. Identical values can stand only once. The source made the active and inactive calls. The rule behind the calls is not given here.

System: rodent lifetime carcinogenesis bioassay, tumor incidence TD50
Assay: carcinogenic potency in animals, long-term in vivo studies, CPDB compilation (AID 1745844)

## NCCCCCCCCCCC(=O)O
mouse, strain B6C3F1, females, in feed, site: any site (literature study), lesion: several types, types named in the paper, dosed 103 weeks, study length 109 weeks
  TD50: 15600 mg/kg/day (inactive)
mouse, strain B6C3F1, females, in feed, site: liver, lesion: hepatocellular adenoma + hepatocellular carcinoma + neoplastic nodule, dosed 103 weeks, study length 109 weeks
  TD50: 37900 mg/kg/day
mouse, strain B6C3F1, females, in feed, site: lung, lesion: alveolar/bronchiolar adenoma + alveolar/bronchiolar carcinoma, dosed 103 weeks, study length 109 weeks
  TD50: 18800 mg/kg/day
mouse, strain B6C3F1, males, in feed, site: all sites, lesion: malignant lymphoma, dosed 103 weeks, study length 109 weeks
  TD50: 4970 mg/kg/day (inactive)
mouse, strain B6C3F1, males, in feed, site: any site (literature study), lesion: several types, types named in the paper, dosed 103 weeks, study length 109 weeks
  TD50: 6500 mg/kg/day
mouse, strain B6C3F1, males, in feed, site: liver, lesion: hepatocellular adenoma + hepatocellular carcinoma + neoplastic nodule, dosed 103 weeks, study length 109 weeks
  TD50: 6250 mg/kg/day
rat, strain Fischer 344, females, in feed, site: any site (literature study), lesion: several types, types named in the paper, dosed 104 weeks, study length 109 weeks
  TD50: 1250 mg/kg/day (inactive)
rat, strain Fischer 344, females, in feed, site: liver, lesion: hepatocellular adenoma + hepatocellular carcinoma + neoplastic nodule, dosed 104 weeks, study length 109 weeks
  TD50: 44600 mg/kg/day
rat, strain Fischer 344, males, in feed, site: any site (literature study), lesion: several types, types named in the paper, dosed 104 weeks, study length 109 weeks
  TD50: 802 mg/kg/day
rat, strain Fischer 344, males, in feed, site: liver + urinary bladder, lesion: hepatocellular carcinoma + neoplastic nodule + transitional-cell carcinoma, dosed 104 weeks, study length 109 weeks
  TD50: 833 mg/kg/day
rat, strain Fischer 344, males, in feed, site: liver, lesion: hepatocellular adenoma + hepatocellular carcinoma + neoplastic nodule, dosed 104 weeks, study length 109 weeks
  TD50: 1100 mg/kg/day
rat, strain Fischer 344, males, in feed, site: liver, lesion: hepatocellular carcinoma + neoplastic nodule, dosed 104 weeks, study length 109 weeks
  TD50: 1100 mg/kg/day
rat, strain Fischer 344, males, in feed, site: liver, lesion: neoplastic nodule, dosed 104 weeks, study length 109 weeks
  TD50: 1290 mg/kg/day
rat, strain Fischer 344, males, in feed, site: mammary gland, lesion: fibroadenoma, dosed 104 weeks, study length 109 weeks
  TD50: 2910 mg/kg/day
rat, strain Fischer 344, males, in feed, site: urinary bladder, lesion: transitional-cell carcinoma, dosed 104 weeks, study length 109 weeks
  TD50: 3170 mg/kg/day

## CC(C)(C)NCC(O)c1ccc(O)c(CO)c1 (stereo not given)
rat, strain Charles River CD (Sprague-Dawley), females, in feed, site: mesovarium, lesion: leiomyoma, dosed 80 weeks, study length 80 weeks
  TD50: 36.3 mg/kg/day
rat, strain Charles River CD (Sprague-Dawley), females, in feed, site: mesovarium, lesion: leiomyoma, dosed 104 weeks, study length 104 weeks
  TD50: 44.6 mg/kg/day

## C1CCC(C(CC2CCCCN2)C2CCCCC2)CC1 (stereo not given)
rat, strain Sprague-Dawley, females, in feed, site: liver, lesion: one or several types, types not named, dosed 52 weeks, study length 52 weeks
  carcinogen call: negative (inactive)
rat, strain Sprague-Dawley, females, in feed, site: liver, lesion: one or several types, types not named, dosed 52 weeks, study length 56 weeks
  carcinogen call: negative (inactive)
rat, strain Sprague-Dawley, males, in feed, site: liver, lesion: one or several types, types not named, dosed 52 weeks, study length 52 weeks
  carcinogen call: negative (inactive)
rat, strain Sprague-Dawley, males, in feed, site: liver, lesion: one or several types, types not named, dosed 52 weeks, study length 56 weeks
  carcinogen call: negative (inactive)

## CCOC(=O)c1ccc(N)cc1
rat, strain ACI, both sexes, in feed, site: colorectum, lesion: papilloma, dosed 94 weeks, study length 94 weeks
  TD50: 331 mg/kg/day
rat, strain ACI, both sexes, in feed, site: colorectum, lesion: squamous-cell carcinoma, dosed 94 weeks, study length 94 weeks
  TD50: 1760 mg/kg/day
rat, strain ACI, both sexes, in feed, site: intestine, lesion: several types, types named in the paper, dosed 94 weeks, study length 94 weeks
  TD50: 191 mg/kg/day
rat, strain ACI, females, in feed, site: cecum, lesion: adenoma, dosed 68 weeks, study length 68 weeks
  TD50: 1270 mg/kg/day
rat, strain ACI, females, in feed, site: colorectum, lesion: adenocarcinoma, dosed 68 weeks, study length 68 weeks
  TD50: 373 mg/kg/day
rat, strain ACI, females, in feed, site: colorectum, lesion: adenoma, dosed 68 weeks, study length 68 weeks
  TD50: 977 mg/kg/day
rat, strain ACI, females, in feed, site: colorectum, lesion: papilloma, dosed 68 weeks, study length 68 weeks
  TD50: 219 mg/kg/day
rat, strain ACI, females, in feed, site: colorectum, lesion: squamous-cell carcinoma, dosed 68 weeks, study length 68 weeks
  TD50: 1760 mg/kg/day
rat, strain ACI, females, in feed, site: urinary bladder, lesion: one or several types, types not named, dosed 68 weeks, study length 68 weeks
  TD50: 2560 mg/kg/day (inactive) and 1640 mg/kg/day (inactive)
rat, strain ACI, males, in feed, site: cecum, lesion: adenoma, dosed 68 weeks, study length 68 weeks
  TD50: 4250 mg/kg/day (inactive)
rat, strain ACI, males, in feed, site: colorectum, lesion: adenocarcinoma, dosed 68 weeks, study length 68 weeks
  TD50: 182 mg/kg/day
rat, strain ACI, males, in feed, site: colorectum, lesion: adenoma, dosed 68 weeks, study length 68 weeks
  TD50: 1700 mg/kg/day
rat, strain ACI, males, in feed, site: colorectum, lesion: squamous-cell carcinoma, dosed 68 weeks, study length 68 weeks
  TD50: 2050 mg/kg/day

## O=C(O)CCC(=O)O
rat, strain F344/DuCrj, females, in drinking water, site: any site (literature study), lesion: one or several types, types not named, dosed 104 weeks, study length 113 weeks
  TD50: 4820 mg/kg/day (inactive)
rat, strain F344/DuCrj, females, in drinking water, site: liver, lesion: one or several types, types not named, dosed 104 weeks, study length 113 weeks
  carcinogen call: negative (inactive)
rat, strain F344/DuCrj, males, in drinking water, site: any site (literature study), lesion: one or several types, types not named, dosed 104 weeks, study length 113 weeks
  carcinogen call: negative (inactive)
rat, strain F344/DuCrj, males, in drinking water, site: liver, lesion: hepatocellular adenoma, dosed 104 weeks, study length 113 weeks
  carcinogen call: negative (inactive)
rat, strain F344/DuCrj, males, in drinking water, site: liver, lesion: hepatocellular carcinoma, dosed 104 weeks, study length 113 weeks
  TD50: 54700 mg/kg/day (inactive)

## CN(CC(O)CO)N=O (stereo not given)
hamster, strain Syrian Golden, females, by gavage, site: any site (literature study), lesion: several types, types named in the paper, dosed 41 weeks, study length 81 weeks
  TD50: 0.509 mg/kg/day
hamster, strain Syrian Golden, females, by gavage, site: liver, lesion: all vascular tumors, dosed 41 weeks, study length 81 weeks
  TD50: 12.7 mg/kg/day (inactive)
hamster, strain Syrian Golden, females, by gavage, site: nasal mucosa, lesion: carcinoma, dosed 41 weeks, study length 81 weeks
  TD50: 1.51 mg/kg/day
hamster, strain Syrian Golden, females, by gavage, site: nasal mucosa, lesion: several types, types named in the paper, dosed 41 weeks, study length 81 weeks
  TD50: 0.94 mg/kg/day
rat, strain Fischer 344, females, in drinking water, site: esophagus, lesion: several types, types named in the paper, dosed 40 weeks, study length 110 weeks
  TD50: 1.48 mg/kg/day
rat, strain Fischer 344, females, in drinking water, site: liver, lesion: hepatocellular carcinoma, dosed 40 weeks, study length 110 weeks
  TD50: 3.13 mg/kg/day
rat, strain Fischer 344, females, in drinking water, site: liver, lesion: neoplastic nodule, dosed 40 weeks, study length 110 weeks
  TD50: 1.01 mg/kg/day
rat, strain Fischer 344, females, in drinking water, site: liver, lesion: several types, types named in the paper, dosed 40 weeks, study length 110 weeks
  TD50: 0.67 mg/kg/day
rat, strain Fischer 344, females, in drinking water, site: lung, lesion: several types, types named in the paper, dosed 40 weeks, study length 110 weeks
  TD50: 0.646 mg/kg/day
rat, strain Fischer 344, females, in drinking water, site: nasal cavity, lesion: several types, types named in the paper, dosed 40 weeks, study length 110 weeks
  TD50: 1.48 mg/kg/day

## CCN(Cc1cccc(S(=O)(=O)[O-])c1)c1ccc(C(=C2C=CC(=[N+](C)C)C=C2)c2ccc(N(CC)Cc3cccc(S(=O)(=O)O)c3)cc2)cc1
mouse, strain ASH-CS1, females, in feed, site: liver, lesion: one or several types, types not named, dosed 80 weeks, study length 80 weeks
  carcinogen call: negative (inactive)
mouse, strain ASH-CS1, females, in feed, site: lung, lesion: adenoma, dosed 80 weeks, study length 80 weeks
  TD50: 1910 mg/kg/day (inactive)
mouse, strain ASH-CS1, males, in feed, site: liver, lesion: one or several types, types not named, dosed 80 weeks, study length 80 weeks
  carcinogen call: negative (inactive)
mouse, strain ASH-CS1, males, in feed, site: lung, lesion: adenocarcinoma, dosed 80 weeks, study length 80 weeks
  TD50: 4660 mg/kg/day (inactive)
mouse, strain ASH-CS1, males, in feed, site: lung, lesion: adenoma, dosed 80 weeks, study length 80 weeks
  carcinogen call: negative (inactive)
rat, strain Sprague-Dawley albino, females, in feed, site: any site (literature study), lesion: malignant tumor, dosed 52 weeks, study length 52 weeks
  TD50: 568 mg/kg/day
rat, strain Sprague-Dawley albino, females, in feed, site: any site (literature study), lesion: several types, types named in the paper, dosed 52 weeks, study length 52 weeks
  TD50: 660 mg/kg/day
rat, strain Sprague-Dawley albino, females, in feed, site: ear duct, lesion: carcinoma, dosed 52 weeks, study length 52 weeks
  TD50: 1600 mg/kg/day
rat, strain Sprague-Dawley albino, females, in feed, site: mammary gland, lesion: carcinoma, dosed 52 weeks, study length 52 weeks
  TD50: 1140 mg/kg/day
rat, strain Sprague-Dawley, females, in feed, site: any site (literature study), lesion: several types, types named in the paper, dosed 51 weeks, study length 52 weeks
  TD50: 418 mg/kg/day
rat, strain Sprague-Dawley, females, in feed, site: mammary gland, lesion: carcinoma, dosed 51 weeks, study length 52 weeks
  TD50: 573 mg/kg/day
rat, strain Sprague-Dawley, females, in feed, site: skin, lesion: squamous-cell carcinoma, dosed 51 weeks, study length 52 weeks
  TD50: 1100 mg/kg/day

## C[C@@H]1O[C@@H](OC[C@H]2O[C@@H](Oc3c(-c4ccc(O)c(O)c4)oc4cc(O)cc(O)c4c3=O)[C@H](O)[C@@H](O)[C@@H]2O)[C@H](O)[C@H](O)[C@H]1O
hamster, strain Syrian Golden, females, in feed, site: adrenal gland, lesion: cortical adenoma, dosed 104 weeks, study length 104 weeks
  TD50: 132000 mg/kg/day (inactive)
hamster, strain Syrian Golden, females, in feed, site: uterus, lesion: leiomyoma, dosed 104 weeks, study length 104 weeks
  TD50: 140000 mg/kg/day (inactive)
hamster, strain Syrian Golden, males, in feed, site: adrenal gland, lesion: cortical adenoma, dosed 104 weeks, study length 104 weeks
  carcinogen call: negative (inactive)
hamster, strain Syrian Golden, males, in feed, site: forestomach, lesion: papilloma, dosed 104 weeks, study length 104 weeks
  carcinogen call: negative (inactive)
rat, strain ACI, females, in feed, site: adrenal gland, lesion: pheochromocytoma, dosed 121 weeks, study length 121 weeks
  TD50: 90400 mg/kg/day (inactive)
rat, strain ACI, females, in feed, site: heart, lesion: sarcoma, dosed 121 weeks, study length 121 weeks
  TD50: 90400 mg/kg/day (inactive)
rat, strain ACI, females, in feed, site: pituitary gland, lesion: adenoma, dosed 77 weeks, study length 77 weeks
  TD50: 8910 mg/kg/day (inactive)
rat, strain ACI, females, in feed, site: urinary bladder, lesion: papilloma, dosed 77 weeks, study length 77 weeks
  TD50: 8910 mg/kg/day (inactive)
rat, strain ACI, males, in feed, site: adrenal gland, lesion: cortical adenoma, dosed 77 weeks, study length 77 weeks
  TD50: 5710 mg/kg/day (inactive)
rat, strain ACI, males, in feed, site: colon, lesion: adenoma, dosed 121 weeks, study length 121 weeks
  TD50: 72300 mg/kg/day (inactive)
rat, strain ACI, males, in feed, site: ileum, lesion: adenoma, dosed 121 weeks, study length 121 weeks
  TD50: 72300 mg/kg/day (inactive)
rat, strain ACI, males, in feed, site: testis, lesion: interstitial-cell tumor, dosed 77 weeks, study length 77 weeks
  TD50: 3530 mg/kg/day (inactive)
rat, strain Sprague-Dawley, females, by gavage, site: liver, lesion: hepatocellular carcinoma, dosed 104 weeks, study length 138 weeks
  TD50: 44800 mg/kg/day (inactive)
rat, strain Sprague-Dawley, males, by gavage, site: liver, lesion: hepatocellular carcinoma, dosed 104 weeks, study length 134 weeks
  carcinogen call: negative (inactive)
